Experimental data as given in PubChem BioAssay AID248 (DTP/NCI, 2004).
Several values for one entry are separate records, joined by “and”; a condition that tells them apart may be missing. Equal values may be shown once. Toxic doses and inconclusive results are not listed.

Tested on: L1210 leukemia ip in BDF1 mice, survival T/C
Test: NCI In Vivo Anticancer Drug Screen. Data for tumor model L1210 Leukemia (intraperitoneal) in B6D2F1 (BDF1) mice
Conditions: endpoint: mean survival time, higher = longer survival
In short: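 Each compound was tested against a transplantable tumor grown in mice. The endpoint was survival, with treated animals benchmarked against vehicle controls as a simple ratio.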

[1] = dose: 12.5 mg/kg/injection, schedule: Q04DX003 (ip), vehicle: saline with Tween-80
[2] = dose: 25.0 mg/kg/injection, schedule: Q04DX003 (ip), vehicle: saline with Tween-80
[3] = dose: 100.0 mg/kg/injection, schedule: Q04DX002 (ip), vehicle: Klucel (hydroxypropylcellulose) (HPC)
[4] = dose: 200.0 mg/kg/injection, schedule: Q04DX002 (ip), vehicle: Klucel (hydroxypropylcellulose) (HPC)
[5] = dose: 100.0 mg/kg/injection, schedule: Q04DX003 (ip), vehicle: saline
[6] = dose: 25.0 mg/kg/injection, schedule: Q01DX009 (ip), vehicle: Klucel (hydroxypropylcellulose) (HPC)
[7] = dose: 100.0 mg/kg/injection, schedule: Q01DX009 (ip), vehicle: Klucel (hydroxypropylcellulose) (HPC)
[8] = dose: 200.0 mg/kg/injection, schedule: Q01DX009 (ip), vehicle: Klucel (hydroxypropylcellulose) (HPC)
[9] = dose: 200.0 mg/kg/injection, schedule: Q04DX003 (ip), vehicle: saline
[10] = dose: 400.0 mg/kg/injection, schedule: Q04DX003 (ip), vehicle: saline
[11] = dose: 100.0 mg/kg/injection, schedule: Q04DX003 (ip), vehicle: saline with Tween-80
[12] = dose: 200.0 mg/kg/injection, schedule: Q04DX003 (ip), vehicle: saline with Tween-80
[13] = dose: 400.0 mg/kg/injection, schedule: Q04DX003 (ip), vehicle: saline with Tween-80
[14] = dose: 100.0 mg/kg/injection, schedule: Q01DX009 (ip), vehicle: saline with Tween-80
[15] = dose: 100.0 mg/kg/injection, schedule: Q04DX002 (ip), vehicle: saline with Tween-80
[16] = dose: 200.0 mg/kg/injection, schedule: Q01DX009 (ip), vehicle: saline with Tween-80
[17] = dose: 200.0 mg/kg/injection, schedule: Q04DX002 (ip), vehicle: saline with Tween-80
[18] = dose: 400.0 mg/kg/injection, schedule: Q04DX002 (ip), vehicle: saline with Tween-80

CCOc1ccccc1C1N(C)CCCN1C
T/C (dose: 6.25 mg/kg/injection, schedule: Q04DX003 (ip), vehicle: saline with Tween-80): 99 % of control | T/C [1]: 100 % of control | T/C [2]: 99 % of control

Cc1c(Br)c(C)c(Br)c(OCC(=O)O)c1Br
T/C [3]: 98 % of control | T/C [4]: 109 % of control

CN(C)CCSCCN1c2ccccc2Sc2ccc(Cl)cc21
T/C [5]: 104 % of control

Cc1cc(C(=O)NC(CCC(=O)O)C(=O)O)cc(C)c1N(C)Cc1cnc2nc(N)nc(N)c2n1 (stereo not given)
T/C (dose: 3.13 mg/kg/injection, schedule: Q01DX009 (ip), vehicle: saline): 158 % of control | T/C (dose: 6.25 mg/kg/injection, schedule: Q01DX009 (ip), vehicle: saline): 161 % of control | T/C (dose: 12.5 mg/kg/injection, schedule: Q01DX009 (ip), vehicle: saline): 153 % of control and 165 % of control | T/C (dose: 50.0 mg/kg/injection, schedule: Q01DX009 (ip), vehicle: sodium bicarbonate): 101 % of control

O=C1CNC(c2ccccc2)c2cc(Cl)ccc2N1 (stereo not given)
T/C [6]: 101 % of control | T/C [7]: 92 % of control | T/C [8]: 87 % of control

O=Cc1[nH]c(=S)[nH]c(=O)c1Cc1ccccc1Cl
T/C (dose: 100.0 mg/kg/injection, schedule: Q04DX003 (ip), vehicle: Klucel (hydroxypropylcellulose) (HPC)): 101 % of control | T/C (dose: 200.0 mg/kg/injection, schedule: Q04DX003 (ip), vehicle: Klucel (hydroxypropylcellulose) (HPC)): 98 % of control | T/C (dose: 400.0 mg/kg/injection, schedule: Q04DX003 (ip), vehicle: Klucel (hydroxypropylcellulose) (HPC)): 97 % of control

Nc1nc2nc(I)[nH]c2c(=O)[nH]1
T/C (dose: 5.0 mg/kg/injection, schedule: Q01DX001 (ip), vehicle: saline): 98 % of control | T/C (dose: 10.0 mg/kg/injection, schedule: Q01DX001 (ip), vehicle: saline): 102 % of control | T/C (dose: 20.0 mg/kg/injection, schedule: Q01DX001 (ip), vehicle: saline): 98 % of control | T/C (dose: 40.0 mg/kg/injection, schedule: Q01DX001 (ip), vehicle: saline): 103 % of control

Cc1ccc([N+](=O)[O-])cc1NC(=O)Nc1ccccc1C(F)(F)F
T/C [7]: 93 % of control | T/C [8]: 96 % of control | T/C (dose: 400.0 mg/kg/injection, schedule: Q01DX009 (ip), vehicle: Klucel (hydroxypropylcellulose) (HPC)): 95 % of control

CC(C)N=C(N)C(N)=NC(C)C
T/C (dose: 100.0 mg/kg/injection, schedule: Q01DX009 (ip), vehicle: saline): 97 % of control | T/C [5]: 98 % of control | T/C (dose: 200.0 mg/kg/injection, schedule: Q01DX009 (ip), vehicle: saline): 92 % of control | T/C [9]: 104 % of control | T/C (dose: 400.0 mg/kg/injection, schedule: Q01DX009 (ip), vehicle: saline): 96 % of control | T/C [10]: 96 % of control

CNC(=O)C1C(c2ccccc2)C1c1ccccc1 (stereo not given)
T/C [3]: 102 % of control | T/C [4]: 97 % of control | T/C (dose: 400.0 mg/kg/injection, schedule: Q04DX002 (ip), vehicle: Klucel (hydroxypropylcellulose) (HPC)): 94 % of control

O=[N+]([O-])c1ccc(Cl)c2nonc12
T/C (dose: 1.65 mg/kg/injection, schedule: Q04DX002 (ip), vehicle: Klucel (hydroxypropylcellulose) (HPC)): 89 % of control | T/C (dose: 3.12 mg/kg/injection, schedule: Q04DX002 (ip), vehicle: Klucel (hydroxypropylcellulose) (HPC)): 92 % of control | T/C (dose: 6.25 mg/kg/injection, schedule: Q04DX002 (ip), vehicle: Klucel (hydroxypropylcellulose) (HPC)): 94 % of control

Cc1nc(N)sc1CCCl
T/C (dose: 36.0 mg/kg/injection, schedule: Q01DX015 (ip), vehicle: carboxymethylcellulose (CMC)): 100 % of control | T/C (dose: 54.0 mg/kg/injection, schedule: Q01DX015 (ip), vehicle: carboxymethylcellulose (CMC)): 94 % of control

C=C(Cl)CSCCO
T/C [11]: 92 % of control | T/C [12]: 97 % of control | T/C [13]: 97 % of control

Cc1nc(C[N+](C)(C)C)c2cnccn12
T/C [5]: 102 % of control

CNC(=O)NC(=O)C(C)(C)Oc1ccc(Cl)cc1
T/C [5]: 97 % of control | T/C [9]: 94 % of control

COc1cccc(N=Nc2c(N)nc(N)nc2N)c1
T/C (dose: 75.0 mg/kg/injection, schedule: Q01DX001 (ip), vehicle: carboxymethylcellulose (CMC)): 104 % of control | T/C (dose: 150.0 mg/kg/injection, schedule: Q01DX001 (ip), vehicle: carboxymethylcellulose (CMC)): 100 % of control | T/C (dose: 300.0 mg/kg/injection, schedule: Q01DX001 (ip), vehicle: carboxymethylcellulose (CMC)): 109 % of control

C/C(=C\Cl)COC1CCCCO1 (stereo not given)
T/C (dose: 100.0 mg/kg/injection, schedule: Q01DX009 (ip), vehicle: acetone): 95 % of control | T/C (dose: 100.0 mg/kg/injection, schedule: Q04DX003 (ip), vehicle: acetone): 101 % of control | T/C (dose: 200.0 mg/kg/injection, schedule: Q01DX009 (ip), vehicle: acetone): 95 % of control | T/C (dose: 200.0 mg/kg/injection, schedule: Q04DX003 (ip), vehicle: acetone): 101 % of control | T/C (dose: 400.0 mg/kg/injection, schedule: Q04DX003 (ip), vehicle: acetone): 101 % of control

OCC(O)COc1ccc(OCc2ccccc2)cc1 (stereo not given)
T/C (dose: 12.5 mg/kg/injection, schedule: Q01DX009 (ip), vehicle: Klucel (hydroxypropylcellulose) (HPC)): 94 % of control | T/C [6]: 102 % of control | T/C (dose: 50.0 mg/kg/injection, schedule: Q01DX009 (ip), vehicle: Klucel (hydroxypropylcellulose) (HPC)): 93 % of control and 87 % of control

O=C(O)CC(NC(=O)OCc1ccccc1)c1ccc(Cl)cc1 (stereo not given)
T/C (dose: 100.0 mg/kg/injection, schedule: Q01DX001 (ip), vehicle: saline with Tween-80): 90 % of control | T/C [14]: 100 % of control and 112 % of control | T/C [15]: 103 % of control | T/C [11]: 101 % of control | T/C (dose: 200.0 mg/kg/injection, schedule: Q01DX001 (ip), vehicle: saline with Tween-80): 94 % of control | T/C [16]: 93 % of control and 102 % of control | T/C [17]: 103 % of control | T/C [12]: 93 % of control | T/C (dose: 400.0 mg/kg/injection, schedule: Q01DX001 (ip), vehicle: saline with Tween-80): 101 % of control | T/C [18]: 92 % of control | T/C [13]: 101 % of control

O=[N+]([O-])C1CC(O)CCC1SSC1CCC(O)CC1[N+](=O)[O-] (stereo not given)
T/C (dose: 100.0 mg/kg/injection, schedule: Q04DX002 (ip), vehicle: other): 106 % of control | T/C (dose: 200.0 mg/kg/injection, schedule: Q04DX002 (ip), vehicle: other): 103 % of control | T/C (dose: 400.0 mg/kg/injection, schedule: Q04DX002 (ip), vehicle: other): 98 % of control

O=S(=O)(c1ccccc1)n1c(C(O)c2cccnc2)cc2ccccc21 (stereo not given)
T/C [15]: 93 % of control | T/C [17]: 100 % of control | T/C [18]: 90 % of control

c1cc2cccc3c2c(c1)c1sc2c4cccc5cccc(c54)c2c31
T/C [14]: 100 % of control | T/C [11]: 101 % of control | T/C [16]: 92 % of control | T/C [12]: 90 % of control | T/C (dose: 400.0 mg/kg/injection, schedule: Q01DX009 (ip), vehicle: saline with Tween-80): 89 % of control | T/C [13]: 94 % of control

NC(=S)c1cccc(S(=O)(=O)Nc2ccccc2)c1
T/C (dose: 100.0 mg/kg/injection, schedule: Q01DX001 (ip), vehicle: Klucel (hydroxypropylcellulose) (HPC)): 103 % of control | T/C (dose: 200.0 mg/kg/injection, schedule: Q01DX001 (ip), vehicle: Klucel (hydroxypropylcellulose) (HPC)): 105 % of control | T/C (dose: 400.0 mg/kg/injection, schedule: Q01DX001 (ip), vehicle: Klucel (hydroxypropylcellulose) (HPC)): 101 % of control

c1ccc2c(c1)OCC(CNC1CCCCC1)O2 (stereo not given)
T/C [1]: 100 % of control | T/C [2]: 94 % of control and 100 % of control | T/C (dose: 50.0 mg/kg/injection, schedule: Q04DX003 (ip), vehicle: saline with Tween-80): 94 % of control | T/C [11]: 98 % of control and 100 % of control

COc1ccccc1NCc1cccc([N+](=O)[O-])c1
T/C [7]: 100 % of control | T/C [5]: 100 % of control | T/C [8]: 94 % of control | T/C [9]: 94 % of control | T/C [10]: 86 % of control

C[N+](C)(C)CCC1CCCCC1
T/C (dose: 75.0 mg/kg/injection, schedule: Q01DX001 (ip), vehicle: saline): 102 % of control
